Test results: patent US12565489B2, “Heterocyclyl pyrimidines and triazines as novel fungicides” (Bayer Aktiengesellschaft, priority 2020, dated 2026)

How the values were obtained:
Botrytis cinerea [1] = assay: In vivo preventive test on Botrytis cinerea (grey mould); conditions: 500 ppm of active ingredient, preventive spray on young gherkin or cabbage plants, evaluated 4 to 5 days after inoculation, read-out: efficacy
Protocol: (§1) The active ingredients were made soluble and homogenized in a mixture of Dimethyl sulfoxide/Acetone//Tween®80 and then diluted in water to the desired concentration. The young plants of gherkin or cabbage were treated by spraying the active ingredient prepared as described above. Control plants were treated only with an aqueous solution of Acetone/Dimethyl sulfoxide/Tween® 80. After 24 hours, the plants were contaminated by spraying the leaves with an aqueous suspension of Botrytis cinerea spores.

Pyrenophora teres = Pyrenophora teres in vitro cell test; format: cell-based; conditions: 144 h, 20 ppm of active ingredient, 6 days incubation, liquid culture, spectrometric measurement of mycelium growth, read-out: efficacy (inhibition of fungal growth)
Protocol: (§2) • Solvent: DMSO • Culture medium: 14.6 g anhydrous D-glucose (VWR), 7.1 g Mycological Peptone (Oxoid), 1.4 g granulated Yeast Extract (Merck), QSP 1 liter • Inoculum: spore suspension Fungicides were solubilized in DMSO and the solution used to prepare the required range of concentrations. […] A spore suspension of P. teres was prepared and diluted to the desired spore density. Fungicides were evaluated for their ability to inhibit spore germination and mycelium growth in liquid culture assay. The compounds were added in the desired concentration to the culture medium with spores. After 6 days incubation, fungi-toxicity of compounds was determined by spectrometric measurement of mycelium growth. Inhibition of fungal growth was determined by comparing the absorbance values in wells containing the fungicides with the absorbance in control wells without fungicides.

Septoria tritici = Septoria tritici in vitro cell test; format: cell-based; conditions: Zymoseptoria tritici, 168 h; 20 ppm of active ingredient; 7 days incubation; liquid culture, spectrometric measurement of mycelium growth; read-out: efficacy (inhibition of fungal growth)
Protocol: • Solvent: DMSO • Culture medium: 1 g KH2PO4 (VWR), 1 g K2HPO4 (VWR), 0.5 g Urea (VWR), 3 g KNO3 (Prolabo), 10 g saccharose (VWR), 0.5 g MgSO4, 7H2O (Sigma), 0.07 g CaCl2, 2H2O (Prolabo), 0.2 mg MnSO4, H2O (Sigma), 0.6 mg CuSO4, 5H2O (Sigma), 7.9 mg ZnSO4, 7H2O (Sigma), 0.1 mg H3BO3 (Merck), 0.14 mg NaMoO4, 2H2O (Sigma), 2 mg thiamine (Sigma), 0.1 mg biotine (VWR), 4 mg FeSO4, 7H2O (Sigma), QSP 1 liter • Inoculum: spore suspension Fungicides were solubilized in DMSO and the solution used to prepare the required range of concentrations. […] A spore suspension of S. tritici was prepared and diluted to the desired spore density. Fungicides were evaluated for their ability to inhibit spore germination and mycelium growth in liquid culture assay. The compounds were added in the desired concentration to the culture medium with spores. […] Inhibition of fungal growth was determined by comparing the absorbance values in wells containing the fungicides with the absorbance in control wells without fungicides.

Alternaria alternata = Alternaria alternata in vitro cell test; format: cell-based; conditions: 120 h, 20 ppm of active ingredient, 5 days incubation, liquid culture, spectrometric measurement of mycelium growth, read-out: efficacy (inhibition of fungal growth)
Protocol: as §2, with “of A. alternata” for “of P. teres”, “After 5” for “After 6”

[2] = Measurement of Log P values by HPLC on reversed phase columns (EEC directive 79/831 Annex V.A8); format: physicochemical; conditions: LogP
Protocol: Measurement of Log P values as provided herein was performed according to EEC directive 79/831 Annex V.A8 by HPLC (High Performance Liquid Chromatography) on reversed phase columns with the following methods: • ^[a] Log P value is determined by measurement of LC-UV, in an acidic range, with 0.1% formic acid in water and acetonitrile as eluent (linear gradient from 10% acetonitrile to 95% acetonitrile). • ^[b] Log P value is determined by measurement of LC-UV, in a neutral range, with 0.001 molar ammonium acetate solution in water and acetonitrile as eluent (linear gradient from 10% acetonitrile to 95% acetonitrile). • ^[c] Log P value is determined by measurement of LC-UV, in an acidic range, with 0.1% phosphoric acid and acetonitrile as eluent (linear gradient from 10% acetonitrile to 95% acetonitrile).
If more than one Log P value is available within the same method, all the values are given and separated by “+”.
Calibration was done with straight-chain alkan2-ones (with 3 to 16 carbon atoms) with known Log P values (measurement of Log P values using retention times with linear interpolation between successive alkanones). Lambda-max-values were determined using UV-spectra from 200 nm to 400 nm and the peak values of the chromatographic signals

Pyricularia oryzae = assay: microbe, parasite or virus in culture; format: cell-based; conditions: 120 h, read-out: efficacy (inhibition of fungal growth)
Alternaria brassicae = assay: In vivo preventive test on Alternaria brassicae (leaf spot on radish or cabbage); conditions: 144 h, 500 ppm of active ingredient, preventive spray on young radish or cabbage plants, evaluated 6 days after inoculation, read-out: efficacy
Protocol: as §1, with “radish” for “gherkin”, “Alternaria brassicae” for “Botrytis cinerea”

Sphaerotheca fuliginea = assay: In vivo preventive test on Sphaerotheca fuliginea (powdery mildew on cucurbits); conditions: Podosphaera fuliginea, 192 h; 500 ppm of active ingredient; preventive spray on young gherkin plants; evaluated 8 days after inoculation; read-out: efficacy
Protocol: as §1, with “gherkin” for “gherkin or cabbage”, “Sphaerotheca fuliginea” for “Botrytis cinerea”

[3] = test system: Colletotrichum lindemuthianum; assay: Colletotrichum lindemuthianum in vitro cell test; format: cell-based; conditions: 144 h, 20 ppm of active ingredient, 6 days incubation, liquid culture, spectrometric measurement of mycelium growth, read-out: efficacy (inhibition of fungal growth)
Protocol: as §2, with “of C. lindemuthianum” for “of P. teres”, “inhibit spores” for “inhibit spore”

Botrytis cinerea [4] = assay: Botrytis cinerea in vitro cell test; format: cell-based; conditions: 144 h, 20 ppm of active ingredient, 6 days incubation, liquid culture, spectrometric measurement of mycelium growth, read-out: efficacy (inhibition of fungal growth)
Protocol: • Solvent: DMSO • Culture medium: 1 g KH2PO4 (VWR), 1 g K2HPO4 (VWR), 0.5 g Urea (VWR), 3 g KNO3 (Prolabo), 10 g saccharose (VWR), 0.5 g MgSO4, 7H2O (Sigma), 0.07 g CaCl2, 2H2O (Prolabo), 0.2 mg MnSO4, H2O (Sigma), 0.6 mg CuSO4, 5H2O (Sigma), 7.9 mg ZnSO4, 7H2O (Sigma), 0.1 mg H3BO3 (Merck), 0.14 mg NaMoO4, 2H2O (Sigma), 2 mg thiamine (Sigma), 0.1 mg biotine (VWR), 4 mg FeSO4, 7H2O (Sigma), QSP 1 liter • Inoculum: spore suspension Fungicides were solubilized in DMSO and the solution used to prepare the required range of concentrations. […] A spore suspension of B. cinerea was prepared and diluted to the desired spore density. Fungicides were evaluated for their ability to inhibit spore germination and mycelium growth in liquid culture assay. The compounds were added in the desired concentration to the culture medium with spores. After 6 days incubation, fungi-toxicity of compounds was determined by spectrometric measurement of mycelium growth. Inhibition of fungal growth was determined by comparing the absorbance values in wells containing the fungicides with the absorbance in control wells without fungicides.

| Structure (SMILES) | pest or weed control at 500 ppm (Botrytis cinerea [1]) [%] | inhibition at 20 ppm (Pyrenophora teres) [%] | inhibition at 20 ppm (Septoria tritici) [%] | inhibition at 20 ppm (Alternaria alternata) [%] | chromatographic logP [2] | inhibition at 20 ppm (Pyricularia oryzae) [%] | pest or weed control at 500 ppm (Alternaria brassicae) [%] | pest or weed control at 500 ppm (Sphaerotheca fuliginea) [%] | inhibition at 20 ppm [3] [%] | inhibition at 20 ppm (Botrytis cinerea [4]) [%] |
| --- | --- | --- | --- | --- | --- | --- | --- | --- | --- | --- |
| Cc1ccc(CC2CON=C(c3nc(C)ncc3Oc3cccc([N+](=O)[O-])c3)N2)c(C)c1 (racemic) [Compound I-003, (5RS)-5-(2,4-dimethylbenzyl)-3-[2-methyl-5-(3-nitro-phenoxy)pyrimidin-4-yl]-5,6-dihydro-4H-1,2,4-oxadiazine] | 90 to 100 | 90 to 100 | 90 to 100 | 90 to 100 | 3.78 | 90 to 100 | 90 to 100 | 80 to 89 | 90 to 100 | 90 to 100 |
| Cc1ncc(Oc2cccc(Cl)c2)c(C2=NOCC(c3ccc4c(c3)CCC4)N2)n1 (racemic) [Compound I-014, (5RS)-3-[5-(3-chlorophenoxy)-2-methyl-pyrimidin-4-yl]-5-indan-5-yl-5,6-dihydro-4H-1,2,4-oxadiazine] | 90 to 100 | 90 to 100 | 90 to 100 | 90 to 100 | 4.05 | 90 to 100 | 90 to 100 | 90 to 100 | 90 to 100 | 90 to 100 |
